By inhibition is commonly meant the drop in the measured response relative to a control, in per cent. The IC50 is the point on the concentration scale where inhibition reaches its midpoint.

For this test, the target named is T1, human recombinant PDE9 protein (hsPDE9A1) (Homo sapiens, UniProt O76083).
T1 construct: made in house; host or cells: COS-1 cells (transient transfection, pcDNA 3.1(+))
Briefly: Measurement of PDE9-inhibiting activity ([3H]-cGMP hydrolysis). Type of test: biochemical. Particulars: for inhibition at 1 µM: human recombinant PDE9, read-out: Inhibiting Activity PDE9 (percent inhibition at 1 μM). The protocol: (1) Measurement of PDE9-Inhibiting Activity:
1) Preparation of Human Recombinant PDE9 Protein
Based on the base sequence of hsPDE9A1 registered with GenBank database (accession No.: AF048837), hsPDE9A1 fragment was amplified by polymerase chain reaction under the following conditions, using the following sequence (Amasham Pharmacia Biotech) as the primer and Human Prostate […] cDNA library (CLONTECH) as the template DNA, with Pfu Turbo DNA polymerase ([…]):
PCR condition: [95° C., 5 min]×1 cycle, [(95° C., 1 min), (58° C., 2 min), (72° C., 3 min)]×25 cycles, [72° C., 10 min]×1 cycle
Thus obtained hsPDE9A1 fragment was given a restricted enzymatic treatment with NheI and NotI, and thereafter inserted into pcDNA 3.1(+) expression vector (Invitrogen) to let it serve as a human PDE9 expression vector.
Human PDE9 expression vector-transformed Escherichia coli was mass incubated to produce a large amount of human PDE9 expression vector, which was transiently transfected into COS-1 cells, with LIPOFECTAMINE 2000 Reagent (GIBCO). The cells were homogenized in ice-cooled buffer A (40 mmol/L Tris-HCl, pH7.5, 15 mmol/L benzamidine, 15 mmol/L 2-mercaptoethanol, 1 μg/mL Pepstatin A, 1 μg/mL Leupeptin, 5 mmol/L EDTA) and centrifuged at 4° C., 14,000×g for 10 minutes. The supernatant was isolated to provide human recombinant PDE9 protein solution.
2) Measurement of PDE9-Inhibiting Activity
To 150 μL of buffer B (70 mmol/L Tris-HCl, pH7.5; 16.7 mmol/L MgCl2, 33.3 nmol/L [^3H]-cGMP) solution containing [^3H]-cGMP (specific activity=244.2 GBq/mmol) at a concentration of 33.3 nmol/L, 50 μL of a solution of the compound to be evaluated (formed by dissolving the compound in DMSO and diluting it with distilled water to DMSO concentration of 5%) and 50 μL of the PDE9 protein solution as prepared in the above, as diluted with buffer C (40 mmol/L Tris-HCl, pH7.5, 15 mmol/L benzamidine, 15 mmol/L 2-mercaptoethanol, 1 μg/mL Pepstatin A, 1 μg/mL Leupeptin) by 1,500×, were added under cooling with ice. This mixed solution was incubated at 30° C. for 30 minutes and the enzymatic reaction of PDE9 was terminated by heating the system in boiling water for 90 seconds. Returning the system to room temperature, 50 μL of Snake venom (SIGMA: 1 mg/mL) was added, followed by 10 minutes' incubation at 30° C., to convert the [^3H]-5′-GMP produced in the previous reaction to [^3H]-guanosine. This reaction solution was passed through a column filled with 1 mL of 0.5 mol/L hydrochloric acid-activated cation-exchange resin (Bio-Rad AG50W-X4 resin, mesh size 200-400) and removed of the unreacted substrate ([^3H]-cGMP) by elution with 12 mL of distilled water. Thereafter [^3H]-guanosine was eluted with 3 mL of 3 mol/L aqueous ammonia and its radiation activity was measured with liquid scintillation counter.
PDE9 inhibition of the tested compound can be calculated by the following formula: […]
From the percent inhibition at various concentration levels of each tested compound, its IC50 value against PDE9 can be determined.

T1 sequence (O76083 whole entry): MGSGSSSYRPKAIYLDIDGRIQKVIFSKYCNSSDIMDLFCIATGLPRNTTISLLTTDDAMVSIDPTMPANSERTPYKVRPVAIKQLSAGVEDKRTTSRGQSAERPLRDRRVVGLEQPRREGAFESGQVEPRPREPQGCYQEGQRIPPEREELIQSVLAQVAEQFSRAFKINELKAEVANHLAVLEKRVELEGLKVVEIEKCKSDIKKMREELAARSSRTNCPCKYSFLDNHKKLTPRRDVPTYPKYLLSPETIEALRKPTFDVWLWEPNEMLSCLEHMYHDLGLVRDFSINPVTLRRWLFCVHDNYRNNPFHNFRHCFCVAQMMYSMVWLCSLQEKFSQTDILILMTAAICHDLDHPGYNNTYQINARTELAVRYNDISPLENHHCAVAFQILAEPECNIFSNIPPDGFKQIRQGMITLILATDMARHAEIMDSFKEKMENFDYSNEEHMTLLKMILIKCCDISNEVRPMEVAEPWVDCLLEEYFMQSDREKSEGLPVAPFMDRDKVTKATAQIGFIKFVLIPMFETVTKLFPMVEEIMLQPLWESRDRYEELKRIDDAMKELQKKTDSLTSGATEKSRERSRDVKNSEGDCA

As for `COc1ccc(Cc2nc3cc(C(=O)O)ccc3c(=O)[nH]2)cc1OC` [Example 3, 2-(3,4-Dimethoxybenzyl)-4-oxo-3,4-dihydroquinazoline-7-carboxylic acid], the inhibition at 1 µM is 11%.

As for `COc1cccc(Cc2nc3cc(C(=O)O)ccc3c(=O)[nH]2)c1` [Example 5, 2-(3-Methoxybenzyl)-4-oxo-3,4-dihydroquinazoline-7-carboxylic acid], the inhibition at 1 µM turned out to be 41%. With `O=C(O)c1ccc2c(=O)[nH]c(Cc3ccccn3)nc2c1` [Example 6, 4-Oxo-2-(2-pyridylmethyl)-3,4-dihydroquinazoline-7-carboxylic acid], under “human recombinant PDE9 expressed in COS-1 cells, 30° C., 30 minutes”, the IC50 worked out at 1360 nM. `O=C(O)c1ccc2c(=O)[nH]c(Cc3cccnc3)nc2c1` [Example 7, 4-Oxo-2-(3-pyridylmethyl)-3,4-dihydroquinazoline-7-carboxylic acid]: the inhibition at 1 µM came to 30%. On to `Cn1c(Cc2cccc(Cl)c2)nc2cc(C(=O)O)ccc2c1=O` [Referential Example 1, 2-(3-Chlorobenzyl)-3-methyl-4-oxo-3,4-dihydroquinazoline-7-carboxylic acid, reference compound], for which, where the note is “ratio of activity versus Example 1”, the “PDE9-inhibiting activity relative to that of the compound of Example 1” value is listed as “less than 1/100”.
